Test results taken from PubChem BioAssay AID248 (DTP/NCI, 2004).
Values joined by “and” are separate entries in the source; they are usually repeats but may differ in a detail not shown here. Identical values can stand only once. Inconclusive results and toxic doses are left out.

Test system: L1210 leukemia ip in BDF1 mice, survival T/C
Assay: NCI In Vivo Anticancer Drug Screen. Data for tumor model L1210 Leukemia (intraperitoneal) in B6D2F1 (BDF1) mice
Details: higher = longer survival
Summary of the method: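 Transplanted-tumor mice were given test agent; controls received vehicle only. Survival readings from the two groups were divided (treated over control).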

[1] = endpoint: mean survival time, dose: 100.0 mg/kg/injection, schedule: Q04DX002 (ip), vehicle: saline with Tween-80
[2] = endpoint: mean survival time, dose: 200.0 mg/kg/injection, schedule: Q04DX002 (ip), vehicle: saline with Tween-80
[3] = endpoint: mean survival time, dose: 400.0 mg/kg/injection, schedule: Q04DX002 (ip), vehicle: saline with Tween-80
[4] = endpoint: mean survival time, dose: 100.0 mg/kg/injection, schedule: Q01DX001 (ip), vehicle: carboxymethylcellulose (CMC)
[5] = endpoint: mean survival time, dose: 200.0 mg/kg/injection, schedule: Q01DX001 (ip), vehicle: carboxymethylcellulose (CMC)
[6] = endpoint: mean survival time, dose: 100.0 mg/kg/injection, schedule: Q04DX003 (ip), vehicle: Klucel (hydroxypropylcellulose) (HPC)
[7] = endpoint: mean survival time, dose: 200.0 mg/kg/injection, schedule: Q04DX003 (ip), vehicle: Klucel (hydroxypropylcellulose) (HPC)
[8] = endpoint: mean survival time, dose: 400.0 mg/kg/injection, schedule: Q04DX003 (ip), vehicle: Klucel (hydroxypropylcellulose) (HPC)
[9] = endpoint: mean survival time, dose: 100.0 mg/kg/injection, schedule: Q01DX009 (ip), vehicle: Klucel (hydroxypropylcellulose) (HPC)
[10] = endpoint: mean survival time, dose: 200.0 mg/kg/injection, schedule: Q01DX009 (ip), vehicle: Klucel (hydroxypropylcellulose) (HPC)
[11] = endpoint: mean survival time, dose: 100.0 mg/kg/injection, schedule: Q04DX003 (ip), vehicle: saline with Tween-80
[12] = endpoint: mean survival time, dose: 200.0 mg/kg/injection, schedule: Q04DX003 (ip), vehicle: saline with Tween-80
[13] = endpoint: mean survival time, dose: 25.0 mg/kg/injection, schedule: Q01DX009 (ip), vehicle: Klucel (hydroxypropylcellulose) (HPC)
[14] = endpoint: mean survival time, dose: 25.0 mg/kg/injection, schedule: Q04DX003 (ip), vehicle: saline with Tween-80
[15] = endpoint: mean survival time, dose: 50.0 mg/kg/injection, schedule: Q04DX003 (ip), vehicle: saline with Tween-80

CCOC(=O)c1cc(/C=C/C=O)oc1N
T/C [1]: 106 % of control | T/C [2]: 101 % of control | T/C [3]: 97 % of control

CN(C)c1ccc(N=Nc2cc(Cl)cc(Cl)c2)cc1
T/C [4]: 89 % of control | T/C [5]: 91 % of control

Cc1ccc(S(=O)(=O)Nc2ccc(NS(=O)(=O)c3ccc(C)cc3)cc2)cc1
T/C (endpoint: mean survival time, dose: 100.0 mg/kg/injection, schedule: Q01DX009 (ip), vehicle: saline): 97 % of control | T/C [6]: 105 % of control | T/C (endpoint: mean survival time, dose: 200.0 mg/kg/injection, schedule: Q01DX009 (ip), vehicle: saline): 94 % of control | T/C [7]: 95 % of control | T/C (endpoint: mean survival time, dose: 400.0 mg/kg/injection, schedule: Q01DX009 (ip), vehicle: saline): 94 % of control | T/C [8]: 101 % of control

CNC(=O)Nc1cccc2c(=O)[nH][nH]c(=O)c12
T/C [9]: 114 % of control | T/C [6]: 97 % of control | T/C [10]: 100 % of control | T/C [7]: 108 % of control | T/C (endpoint: mean survival time, dose: 400.0 mg/kg/injection, schedule: Q01DX009 (ip), vehicle: Klucel (hydroxypropylcellulose) (HPC)): 86 % of control | T/C [8]: 91 % of control

ClC(Cl)(Cl)C(N1CCN(c2ccccc2)CC1)N1CCN(c2ccccc2)CC1
T/C [4]: 101 % of control | T/C [5]: 106 % of control | T/C (endpoint: mean survival time, dose: 400.0 mg/kg/injection, schedule: Q01DX001 (ip), vehicle: carboxymethylcellulose (CMC)): 89 % of control

N#C/C(=C\C1CC(Br)CCC1O)C1CCC([N+](=O)[O-])CC1 (configuration not stated)
T/C [1]: 97 % of control | T/C [2]: 86 % of control

O=c1[nH]nnc2nn(C3OC(CO)C(O)C3O)cc12 (configuration not stated)
T/C (endpoint: mean survival time, dose: 100.0 mg/kg/injection, schedule: Q01DX005 (ip), vehicle: saline): 103 % of control | T/C (endpoint: mean survival time, dose: 200.0 mg/kg/injection, schedule: Q01DX005 (ip), vehicle: saline): 109 % of control

CCOC(=O)CNC(=O)Oc1cc(C)cc(C)c1C
T/C (endpoint: mean survival time, dose: 100.0 mg/kg/injection, schedule: Q01DX009 (ip), vehicle: saline with Tween-80): 98 % of control | T/C (endpoint: mean survival time, dose: 200.0 mg/kg/injection, schedule: Q01DX009 (ip), vehicle: saline with Tween-80): 100 % of control | T/C (endpoint: mean survival time, dose: 400.0 mg/kg/injection, schedule: Q01DX009 (ip), vehicle: saline with Tween-80): 98 % of control

CCOC(=O)Nc1cccc(Cl)c1Cl
T/C [11]: 101 % of control | T/C [12]: 98 % of control | T/C (endpoint: mean survival time, dose: 400.0 mg/kg/injection, schedule: Q04DX003 (ip), vehicle: saline with Tween-80): 93 % of control

CCOC(=O)c1cnc(C)nc1Nc1ccccc1I
T/C [6]: 106 % of control | T/C [7]: 97 % of control | T/C [8]: 101 % of control

CC(CN1CCCC1)C(O)(Cc1ccccc1)c1ccccc1 (configuration not stated)
T/C (endpoint: mean survival time, dose: 25.0 mg/kg/injection, schedule: Q01DX009 (ip), vehicle: saline): 95 % of control | T/C (endpoint: mean survival time, dose: 50.0 mg/kg/injection, schedule: Q01DX009 (ip), vehicle: saline): 95 % of control | T/C (endpoint: mean survival time, dose: 100.0 mg/kg/injection, schedule: Q04DX003 (ip), vehicle: saline): 92 % of control

O=C(COc1ccc(Cl)cc1)OCCCl
T/C (endpoint: mean survival time, dose: 87.5 mg/kg/injection, schedule: Q01DX009 (ip), vehicle: other): 104 % of control | T/C [6]: 95 % of control | T/C (endpoint: mean survival time, dose: 175.0 mg/kg/injection, schedule: Q01DX009 (ip), vehicle: other): 98 % of control | T/C [7]: 97 % of control | T/C (endpoint: mean survival time, dose: 350.0 mg/kg/injection, schedule: Q01DX009 (ip), vehicle: other): 104 % of control | T/C [8]: 91 % of control

CCC(C)N(C)/N=N/c1nc[nH]c1C(N)=O (configuration not stated)
T/C (endpoint: mean survival time, dose: 11.0 mg/kg/injection, schedule: Q01DX009 (ip), vehicle: Klucel (hydroxypropylcellulose) (HPC)): 110 % of control | T/C (endpoint: mean survival time, dose: 16.7 mg/kg/injection, schedule: Q01DX009 (ip), vehicle: Klucel (hydroxypropylcellulose) (HPC)): 123 % of control | T/C (endpoint: mean survival time, dose: 16.8 mg/kg/injection, schedule: Q01DX009 (ip), vehicle: Klucel (hydroxypropylcellulose) (HPC)): 124 % of control | T/C [13]: 124 % of control | T/C (endpoint: mean survival time, dose: 25.0 mg/kg/injection, schedule: Q04DX003 (ip), vehicle: water): 121 % of control | T/C (endpoint: mean survival time, dose: 38.0 mg/kg/injection, schedule: Q01DX009 (ip), vehicle: Klucel (hydroxypropylcellulose) (HPC)): 159 % of control | T/C (endpoint: mean survival time, dose: 50.0 mg/kg/injection, schedule: Q01DX001 (ip), vehicle: water): 101 % of control | T/C (endpoint: mean survival time, dose: 50.0 mg/kg/injection, schedule: Q01DX009 (ip), vehicle: water): 154 % of control | T/C (endpoint: mean survival time, dose: 50.0 mg/kg/injection, schedule: Q04DX003 (ip), vehicle: water): 106 % of control | T/C (endpoint: mean survival time, dose: 58.0 mg/kg/injection, schedule: Q01DX009 (ip), vehicle: Klucel (hydroxypropylcellulose) (HPC)): 159 % of control | T/C (endpoint: mean survival time, dose: 88.0 mg/kg/injection, schedule: Q01DX009 (ip), vehicle: Klucel (hydroxypropylcellulose) (HPC)): 150 % of control and 186 % of control | T/C (endpoint: mean survival time, dose: 100.0 mg/kg/injection, schedule: Q01DX001 (ip), vehicle: water): 110 % of control | T/C (endpoint: mean survival time, dose: 100.0 mg/kg/injection, schedule: Q01DX009 (ip), vehicle: water): 120 % of control | T/C (endpoint: mean survival time, dose: 100.0 mg/kg/injection, schedule: Q04DX003 (ip), vehicle: water): 110 % of control | T/C (endpoint: mean survival time, dose: 133.0 mg/kg/injection, schedule: Q01DX009 (ip), vehicle: Klucel (hydroxypropylcellulose) (HPC)): 106 % of control | T/C (endpoint: mean survival time, dose: 133.0 mg/kg/injection, schedule: Q04DX003 (ip), vehicle: saline with Tween-80): 116 % of control and 124 % of control | T/C (endpoint: mean survival time, dose: 200.0 mg/kg/injection, schedule: Q01DX001 (ip), vehicle: water): 109 % of control | T/C [12]: 121 % of control | T/C (endpoint: mean survival time, dose: 200.0 mg/kg/injection, schedule: Q04DX003 (ip), vehicle: water): 106 % of control | T/C (endpoint: mean survival time, dose: 300.0 mg/kg/injection, schedule: Q04DX003 (ip), vehicle: saline with Tween-80): 157 % of control | T/C (endpoint: mean survival time, dose: 400.0 mg/kg/injection, schedule: Q04DX003 (ip), vehicle: water): 94 % of control | T/C (endpoint: median survival time, dose: 25.0 mg/kg/injection, schedule: Q01DX009 (ip), vehicle: Klucel (hydroxypropylcellulose) (HPC)): 115 % of control | T/C (endpoint: median survival time, dose: 50.0 mg/kg/injection, schedule: Q01DX009 (ip), vehicle: Klucel (hydroxypropylcellulose) (HPC)): 155 % of control | T/C (endpoint: median survival time, dose: 75.0 mg/kg/injection, schedule: Q01DX009 (ip), vehicle: Klucel (hydroxypropylcellulose) (HPC)): 155 % of control | T/C (endpoint: median survival time, dose: 100.0 mg/kg/injection, schedule: Q01DX009 (ip), vehicle: Klucel (hydroxypropylcellulose) (HPC)): 155 % of control | T/C (endpoint: median survival time, dose: 100.0 mg/kg/injection, schedule: Q04DX003 (ip), vehicle: Klucel (hydroxypropylcellulose) (HPC)): 110 % of control | T/C (endpoint: median survival time, dose: 200.0 mg/kg/injection, schedule: Q04DX003 (ip), vehicle: Klucel (hydroxypropylcellulose) (HPC)): 120 % of control | T/C (endpoint: median survival time, dose: 300.0 mg/kg/injection, schedule: Q04DX003 (ip), vehicle: Klucel (hydroxypropylcellulose) (HPC)): 120 % of control | T/C (endpoint: median survival time, dose: 400.0 mg/kg/injection, schedule: Q04DX003 (ip), vehicle: Klucel (hydroxypropylcellulose) (HPC)): 100 % of control

CN(C)CCC(=O)c1ccc(-c2ccccc2)cc1
T/C [6]: 97 % of control | T/C [7]: 97 % of control

CCCCSC1=NCCCS1
T/C (endpoint: mean survival time, dose: 75.0 mg/kg/injection, schedule: Q01DX001 (ip), vehicle: other): 104 % of control | T/C (endpoint: mean survival time, dose: 150.0 mg/kg/injection, schedule: Q01DX001 (ip), vehicle: other): 111 % of control | T/C (endpoint: mean survival time, dose: 300.0 mg/kg/injection, schedule: Q01DX001 (ip), vehicle: other): 102 % of control

Cn1cnc([N+](=O)[O-])c1S(=O)(=O)NCN1CCOCC1
T/C [13]: 117 % of control | T/C [9]: 113 % of control | T/C [10]: 113 % of control

COc1cc(C(=O)NC(=S)Nc2ccc3ccccc3c2)cc(OC)c1OC
T/C [1]: 91 % of control | T/C [2]: 97 % of control | T/C [3]: 91 % of control

CN1c2ccccc2NP1(=S)c1ccccc1 (configuration not stated)
T/C [1]: 90 % of control | T/C [2]: 90 % of control | T/C [3]: 87 % of control

COc1ccc(C(=O)c2no[n+]([O-])c2C(=O)c2ccc(OC)cc2)cc1
T/C [11]: 90 % of control | T/C [12]: 94 % of control

O=C1NC(=S)S/C1=C\c1ccc(F)cc1
T/C (endpoint: mean survival time, dose: 12.5 mg/kg/injection, schedule: Q04DX003 (ip), vehicle: saline with Tween-80): 117 % of control | T/C [14]: 98 % of control | T/C [15]: 103 % of control

C1CCC2(CC1)CCCO2
T/C (endpoint: mean survival time, dose: 50.0 mg/kg/injection, schedule: Q04DX002 (ip), vehicle: saline with Tween-80): 87 % of control | T/C [1]: 98 % of control | T/C [2]: 106 % of control | T/C [3]: 102 % of control

CCCN(CCC)CP(=O)(CN(CCC)CCC)CN(CCC)CCC
T/C [14]: 92 % of control | T/C [15]: 90 % of control | T/C [11]: 93 % of control
